Here are results for one compound from paper PMC6367500, “18β-glycyrrhetyl-3-O-sulfate would be a causative agent of licorice-induced pseudoaldosteronism” (Scientific Reports, 2019).

A short description of data set [1]: Concentrations of GL metabolites in plasma of a patient with pseudoaldosteronism (LC-MS/MS). In kind it is in vivo, human. An excerpt:
The patient was a person who had taken a Kampo formula containing licorice for 3 years (1.5 g of licorice for 1 year and 2 months, and 3 g for 1 year and 10 months). On day 0, we found a low plasma potassium level (2.1 mEq/l) and a high creatinine kinase level (364 U/l). Since low plasma renin activity and a low aldosterone level were also found, the patient was diagnosed with pseudoaldosteronism due to licorice. The administration of the Kampo formula was stopped and potassium supplementation of up to 100 mEq/day was started. In the plasma collected on day 0, we detected compound 3 at 8.6 µM, GA at 1.3 µM, and 2 at 87 nM, while 1, GL and 3MGA were not detected. On day 5, the plasma potassium level was still 2.1 mEq/l and potassium supplementation was continued. However, the plasma concentrations of 3 and GA had decreased to 3.6 µM and 0.65 µM, respectively. 2, 1, GL, and 3MGA were not detected. On day 13, the plasma potassium level was increased to 2.8 mEq/l, and the concentrations of 3 and GA were 61 nM and 11 nM, respectively. On day 14, the plasma potassium level was 3.4 mEq/l, and the concentration of 3 was 57 nM; GA was not detected. On day 18, the plasma potassium level had recovered to a normal level (4.9 mEq/l), so potassium supplementation was stopped.
Female SD rats or EHBRs (9-week-old) were anesthetized by an intraperitoneal (i.p.) injection of urethane (1 g/kg) and their jugular veins were exposed. GA suspended in 0.5% CMC was then administered orally (200 mg/kg) to the unconscious rats, and blood samples were collected from the jugular vein; urine samples were collected using a metabolic cage at an appropriate time over a 12-h period. […] Feces were homogenized in phosphate-buffered saline (PBS; 0.15 M, pH 7.2), centrifuged (1.2 × 10^4 g, 10 min), and the supernatants were collected. After 1 week as a washout period, female SD rats were anesthetized by an i.p. injection of urethane (1 g/kg) and their biliary tract was cannulated. GA (0.2 mg/kg) was injected into the jugular vein, and the bile was collected every hour for 4 h. Aliquots (10 µl) of plasma, urine, homogenate of feces, or bile were mixed with 20 µl of subtilisin (0.91 U/ml) and incubated at 37 °C for 30 min, followed by the addition of 70 µl of astragaloside IV solution (1 µg/ml in ethanol containing 0.5% formic acid, used as internal standard), and kept at −20 °C for 30 min. […] The transitions (precursor to daughter) monitored and retention times were as follows: ESI(+) 743.4 to 567.5 m/z for compound 1 (5.5 min), ESI(−) 565.5 to 96.5 m/z for 2 (6.2 min), ESI(−) 549.5 to 96.5 m/z for 3 (8.1 min), ESI(+) 647.6 to 453.6 m/z for 3MGA (9.2 min), ESI(+) 471.3 to 91.0 m/z for GA (8.8 min), ESI(+) 823.5 to 453.6 m/z for GL (10.8 min), and ESI(+) 785.4 to 143.0 m/z for astragaloside IV (3.0 min). Linear regressions over the concentration range of 32 nM to 20 µM for each compound were examined using the peak-area ratio of the compounds to their internal standards and the least-squares method (r^2 > 0.98).
The patient was a person. They provided written informed consent to the use of their blood and urine samples for this study, which was approved by the Independent Ethics Committee of Kameda General Hospital, in accordance with the Declaration of Helsinki. Their anamnesis was follows: hypertension, systemic lupus erythematosus, and antiphospholipid antibody syndrome (for 15 years), necrotic pulmonary aspergillosis (6 years ago), cerebral infarction (14 and 4 years ago, two times), and stomach cancer (3 years ago). After the operation for stomach cancer, the patient had been treated with Kracie Juzentaihoto Extract Granules for Ethical Use (Kracie Pharmaceuticals., Tokyo, Japan). […]

In data set [2] the test system is anti-3MGA-mAb. Kind of data set: Competitive ELISA using anti-3MGA-mAb. It counts as binding. Conditions: specificity to 3MGA calibrated to 100%, n = 1. As for the experimental part:
(§1) Figure 5 Dot-blot analysis and ELISA detection range of GL metabolites using anti-3MGA-monoclonal antibody (mAb). GL metabolites (1 µg each) were spotted on a PES membrane, and colored using an anti-3MGA-mAb (A). Competitive ELISA using anti-3MGA-mAb for GL metabolites was performed. Data are represented from a single analysis (n = 1) (B). […] Data are represented as mean ± S.D. (n = 3). Two-way ANOVA indicated a significant difference between GA and 3 (F1,36 = 4441, P < 0.001), concentrations (F8,36 = 315, P < 0.001), and their interactions (F8,36 = 281, P < 0.001). The calibrated line for the absorbance-concentration profile of 3 was calculated by the linear least-squares method, and the regression formula is shown in graph (C).
When the specificity of the mAb to 3MGA was calibrated to 100%, the cross-reactivity for GL, GA, 1, 2, and 3 was 0.23%, 2.2%, 4.8%, 4.0%, and 23%, respectively. […] We confirmed the selectivity of the anti-3MGA-mAb in discriminating between 3 and GA and established the detectable measurement range for 3 in this ELISA system.
3MGA-HSA (1 µg/ml in 50 mM carbonate buffer, pH 9.6) was added into a 96-well plate (Nagel Nunc, Penfield, NY, USA) (100 µl in a well) and incubated at 37 °C for 1 h. After the removal of 3MGA-HSA, the wells were washed three times with T-PBS (200 µl in a well). The wells were incubated with 300 µl in a well of 5% skim milk at 4 °C overnight. After the wells had been washed with T-PBS three times, the sample solution diluted with Can Get Signal® Solution 1 (Toyobo Co., Ltd., Osaka, Japan) (50 µl in a well) and anti-3MGA-mAb (1:4,000 dilution with Can Get Signal® Solution 1) (50 µl in a well) were added to the wells, and the plate was incubated at 37 °C for 1 h. After the wells had been washed with T-PBS three times, HRP-labeled goat anti-mouse IgG (Fc specific) antibody (Sigma, 1:20,000 dilution with Can Get Signal® Solution 2) was added into the wells (100 µl in a well) and the plate was incubated at 37 °C for 1 h. Next, the wells were washed with T-PBS three times and the substrate solution (3,3′,5,5′-tetramethylbensidine, TMB solution; Fujifilm Wako Pure Chemical Corporation, Osaka, Japan) was added to the wells (100 µl in a well), followed by incubation at room temperature for 5 min. Then, the stop solution (0.5 M sulfuric acid) was added to the wells (100 µl in a well) and the optical density was measured at 450 nm/630 nm.
(In an ELISA, binding on a coated surface is turned into a signal by an enzyme label.)

In data set [3] the test system is anti-3MGA-mAb. Kind of data set: Dot-blot analysis using anti-3MGA-mAb. In kind it is binding. Conditions: 1 µg spotted on PES membrane, imaging analysis. As for the experimental part: We confirmed the cross-reactivity of anti-3MGA-mAb against these GL metabolites. GL, GA, 3MGA, and compounds 1, 2, and 3 (1 µg each) were spotted on a polyethersulfone (PES) membrane, fixed onto the membrane, and colored using an anti-3MGA-mAb (Fig. 5A). […] Thus, the anti-3MGA-mAb cross-reacted to some extent with other metabolites of GL.
as §1
Anti-3MGA-mAb and 3MGA-human serum albumin (HSA)-conjugate were developed by the same protocols established in our previous studies[22],[23]. GL, GA, 3MGA, 1, 2, and 3 (1 µg each) were spotted on a Mustang^TM E positively charged PES membrane (Pall Co., East Hills, NY, USA). The membrane was then immersed into 0.1 M MES buffer (pH 4.7) containing 2% EDC and 1% NHS, and kept at room temperature for 1 h to activate the carboxyl group. After washing with distilled water, PBS containing 1% bovine serum albumin (BSA) was added to the membrane, which was shaken at room temperature for 2 h for fixation. Next, the membrane was blocked with PBS containing 5% skim milk (Morinaga-milk, Tokyo, Japan) and 0.1% Tween 20 at 4 °C overnight to reduce nonspecific adsorption. After washing twice with PBS containing 0.1% Tween 20 (T-PBS) for 5 min, the membrane was incubated with anti-3MGA-mAb and kept at room temperature for 3 h with constant agitation. The membrane was then washed twice with T-PBS for 5 min and treated with 1:500 diluted horseradish peroxidase (HRP)-labeled goat anti-mouse IgG (whole molecule; Sigma, St. Louis, MO, USA) antibody in T-PBS for 1 h with gentle shaking. Finally, the membrane was washed twice with T-PBS and once with PBS, and exposed to 1 mg/ml of freshly prepared 4-chloro-1-naphthol-0.03% H2O2 in PBS for 15 min at room temperature. The reaction was stopped by washing with distilled water, and the immunostained PES membrane was allowed to dry and then photographed. The positively stained areas were measured using Image J 1.46r (http://imageJ.nih.gov/ij).

Take `CC1(C)[C@@H](O[C@H]2O[C@H](C(=O)O)[C@@H](O)[C@H](O)[C@H]2O[C@@H]2O[C@H](C(=O)O)[C@@H](O)[C@H](O)[C@H]2O)CC[C@]2(C)[C@H]3C(=O)C=C4[C@@H]5C[C@@](C)(C(=O)O)CC[C@]5(C)CC[C@@]4(C)[C@]3(C)CC[C@@H]12` [GL, glycyrrhizin, reference compound]: the “plasma concentration, day 0” value in data set [1] (patient with licorice-induced pseudoaldosteronism, day 0) is “not detected”. Further, in data set [1] (patient, 5 days after stopping the Kampo formula), the “plasma concentration, day 5” value was “not detected”. In addition, the “cross-reactivity of anti-3MGA-mAb” value with anti-3MGA-mAb [2] came out at 0.23%. The “area of positive staining in dot-blot” value in the data set on anti-3MGA-mAb [3] is on record as “not detectable”.
